Measured values from ChEMBL document CHEMBL4000149, “The effect of glycine replacement with flexible ω-amino acids on the antimicrobial and haemolytic activity of an amphipathic cyclic heptapeptide” (Eur J Med Chem, 2015).
Converted amounts (≈) assume the structure as drawn. Numbered stars: 1 amine (or outer) side, 2 acyl side, 3 side chain; on linkers, the order of the positions; unused ones are H or OH. Bridge positions count the residues as written; N and C are the ends. Square brackets hold non-standard residues; d marks the D form. Peptide text beside a SMILES is read from it. ξ: configuration not given here. 2Nal = N[C@@H](Cc1ccc2ccccc2c1)C(=O)O; X1 = NC(CCN[*:2])C(=O)[*:1]; ξAoc(2) = CCCCCCC(N)C(=O)O; ξDab = NCCC(N)C(=O)O; GABA = NCCCC(=O)O

Tests used:
[1] = Toxicity in human erythrocytes assessed as hemolysis at 150 uM after 1 hr; assay type: cell-based, Erythrocyte; conditions: read-out: Activity
[2] = Toxicity in human erythrocytes assessed as hemolysis after 1 hr; assay type: cell-based, Erythrocyte
[3] = tested on: Candida albicans; experiment: Antifungal activity against Candida albicans ATCC 200955 by tube dilution method; assay type: functional
[4] = tested on: Enterococcus faecium; experiment: Antimicrobial activity against vancomycin-resistant Enterococcus faecium ATCC 700221 by tube dilution method; assay type: functional
[5] = tested on: Staphylococcus aureus; experiment: Antimicrobial activity against methicillin-resistant Staphylococcus aureus ATCC 33591 by tube dilution method; assay type: functional
[6] = tested on: Acinetobacter baumannii; experiment: Antimicrobial activity against multidrug-resistant Acinetobacter baumannii ATCC BAA-1605 by tube dilution method; assay type: functional
[7] = tested on: Klebsiella pneumoniae; experiment: Antimicrobial activity against multidrug-resistant Klebsiella pneumoniae ATCC 700603 by tube dilution method; assay type: functional
[8] = tested on: Escherichia coli; experiment: Antimicrobial activity against Escherichia coli ATCC 25922 by tube dilution method; assay type: functional
[9] = tested on: Pseudomonas aeruginosa; experiment: Antimicrobial activity against Pseudomonas aeruginosa ATCC 27853 by tube dilution method; assay type: functional

Row | Structure (SMILES) | hemolysis at 1 h, 150 µM [1] [%] | EC50 at 1 hr [2] [µM] | MIC [3] [µM] | MIC [4] [µM] | MIC [5] [µM] | MIC [6] [µM] | MIC [7] [µM] | MIC [8] [µM] | MIC [9] [µM]
1 | CC(C)C[C@@H]1NC(=O)CNC(=O)[C@H](Cc2ccc3ccccc3c2)NC(=O)[C@H](CCCNC(=N)N)NC(=O)[C@H](CC(C)C)NC(=O)[C@H](Cc2ccc3ccccc3c2)NC(=O)[C@H](CCCNC(=N)N)NC1=O | 27 | 215 | 16 (≈ 15.8 µg/mL) | 8 (≈ 7.92 µg/mL) | 8 (≈ 7.92 µg/mL) | 128 (≈ 127 µg/mL) | 128 (≈ 127 µg/mL) | 32 (≈ 31.7 µg/mL) | 64 (≈ 63.4 µg/mL)
2 | CCCCCCC1NC(=O)[C@H](Cc2ccc3ccccc3c2)NC(=O)[C@H](CCCNC(=N)N)NC(=O)[C@H](CC(C)C)NC(=O)CNC(=O)[C@H](Cc2ccc3ccccc3c2)NC(=O)[C@H](CCCNC(=N)N)NC1=O (some centres undefined) | 100 | 33 | 4 (≈ 4.07 µg/mL) | 2 (≈ 2.04 µg/mL) | 4 (≈ 4.07 µg/mL) | 16 (≈ 16.3 µg/mL) | 16 (≈ 16.3 µg/mL) | 16 (≈ 16.3 µg/mL) | 32 (≈ 32.6 µg/mL)
3 | CCCCCC[C@H]1NC(=O)[C@H](Cc2ccc3ccccc3c2)NC(=O)[C@H](CCCNC(=N)N)NC(=O)[C@H](CC(C)C)NC(=O)CNC(=O)[C@H](Cc2ccc3ccccc3c2)NC(=O)[C@H](CCCNC(=N)N)NC1=O | 100 | 55 | 16 (≈ 16.3 µg/mL) | 8 (≈ 8.15 µg/mL) | 8 (≈ 8.15 µg/mL) | 32 (≈ 32.6 µg/mL) | 64 (≈ 65.2 µg/mL) | 32 (≈ 32.6 µg/mL) | 64 (≈ 65.2 µg/mL)
4 | CC(C)C[C@@H]1NC(=O)CNC(=O)[C@@H](Cc2ccc3ccccc3c2)NC(=O)[C@H](CCCNC(=N)N)NC(=O)[C@H](CC(C)C)NC(=O)[C@H](Cc2ccc3ccccc3c2)NC(=O)[C@H](CCCNC(=N)N)NC1=O | < 8 | > 150 | 64 (≈ 63.4 µg/mL) | 16 (≈ 15.8 µg/mL) | 32 (≈ 31.7 µg/mL) | 128 (≈ 127 µg/mL) | > 128 | 128 (≈ 127 µg/mL) | > 128
5 | CCCCCCC1NC(=O)[C@@H](Cc2ccc3ccccc3c2)NC(=O)[C@H](CCCNC(=N)N)NC(=O)[C@H](CC(C)C)NC(=O)CNC(=O)[C@H](Cc2ccc3ccccc3c2)NC(=O)[C@H](CCCNC(=N)N)NC1=O (some centres undefined) | 92 | 55 | 16 (≈ 16.3 µg/mL) | 8 (≈ 8.15 µg/mL) | 8 (≈ 8.15 µg/mL) | 64 (≈ 65.2 µg/mL) | 64 (≈ 65.2 µg/mL) | 32 (≈ 32.6 µg/mL) | 64 (≈ 65.2 µg/mL)
6 | CC(C)C[C@@H]1NC(=O)[C@H](Cc2ccc3ccccc3c2)NC(=O)[C@H](CCCNC(=N)N)NC(=O)[C@H](CC(C)C)NC(=O)[C@@H](N)CCCCNC(=O)[C@H](Cc2ccc3ccccc3c2)NC(=O)[C@H](CCCNC(=N)N)NC1=O (H-KLR[2Nal]LR[2Nal]; lactam 1-C) | 51 | 150 | 8 (≈ 8.49 µg/mL) | 4 (≈ 4.25 µg/mL) | 8 (≈ 8.49 µg/mL) | 32 (≈ 34 µg/mL) | 32 (≈ 34 µg/mL) | 32 (≈ 34 µg/mL) | 32 (≈ 34 µg/mL)
7 | CC(C)C[C@@H]1NC(=O)C(N)CCNC(=O)[C@H](Cc2ccc3ccccc3c2)NC(=O)[C@H](CCCNC(=N)N)NC(=O)[C@H](CC(C)C)NC(=O)[C@H](Cc2ccc3ccccc3c2)NC(=O)[C@H](CCCNC(=N)N)NC1=O (some centres undefined) (H-[ξDab]LR[2Nal]LR[2Nal]; lactam 1-C) | < 8 | 265 | 16 (≈ 16.5 µg/mL) | 8 (≈ 8.27 µg/mL) | 32 (≈ 33.1 µg/mL) | > 128 | 64 (≈ 66.1 µg/mL) | 64 (≈ 66.1 µg/mL) | 128 (≈ 132 µg/mL)
8 | CC(C)C[C@@H]1NC(=O)C(N)CCNC(=O)C(N)CCNC(=O)[C@H](Cc2ccc3ccccc3c2)NC(=O)[C@H](CCCNC(=N)N)NC(=O)[C@H](CC(C)C)NC(=O)[C@H](Cc2ccc3ccccc3c2)NC(=O)[C@H](CCCNC(=N)N)NC1=O (some centres undefined) (H-[ξDab]LR[2Nal]LR[2Nal]; linker 1-C via X1) | < 8 | > 450 | 16 (≈ 18.1 µg/mL) | 8 (≈ 9.07 µg/mL) | 16 (≈ 18.1 µg/mL) | 128 (≈ 145 µg/mL) | 128 (≈ 145 µg/mL) | 32 (≈ 36.3 µg/mL) | 32 (≈ 36.3 µg/mL)
9 | CC(C)C[C@@H]1NC(=O)C(N)CCNC(=O)CCCNC(=O)[C@H](Cc2ccc3ccccc3c2)NC(=O)[C@H](CCCNC(=N)N)NC(=O)[C@H](CC(C)C)NC(=O)[C@H](Cc2ccc3ccccc3c2)NC(=O)[C@H](CCCNC(=N)N)NC1=O (some centres undefined) (H-[ξDab]LR[2Nal]LR[2Nal][GABA]; lactam 1-C) | < 8 | 420 | 32 (≈ 35.8 µg/mL) | 8 (≈ 8.95 µg/mL) | 8 (≈ 8.95 µg/mL) | 64 (≈ 71.6 µg/mL) | 64 (≈ 71.6 µg/mL) | 32 (≈ 35.8 µg/mL) | 64 (≈ 71.6 µg/mL)
10 | CCCCCCC1NC(=O)[C@H](Cc2ccc3ccccc3c2)NC(=O)[C@H](CCCNC(=N)N)NC(=O)[C@H](CC(C)C)NC(=O)C(N)CCNC(=O)C(N)CCNC(=O)[C@H](Cc2ccc3ccccc3c2)NC(=O)[C@H](CCCNC(=N)N)NC1=O (some centres undefined) (H-[ξDab]LR[2Nal][ξAoc(2)]R[2Nal]; linker 1-C via X1) | 100 | 55 | 8 (≈ 9.29 µg/mL) | 4 (≈ 4.65 µg/mL) | 4 (≈ 4.65 µg/mL) | 64 (≈ 74.3 µg/mL) | 64 (≈ 74.3 µg/mL) | 16 (≈ 18.6 µg/mL) | 32 (≈ 37.2 µg/mL)
11 | CC(C)C[C@@H]1NC(=O)CCCNC(=O)C(N)CCNC(=O)[C@H](Cc2ccc3ccccc3c2)NC(=O)[C@H](CCCNC(=N)N)NC(=O)[C@H](CC(C)C)NC(=O)[C@H](Cc2ccc3ccccc3c2)NC(=O)[C@H](CCCNC(=N)N)NC1=O (some centres undefined) (H-[ξDab][GABA]LR[2Nal]LR[2Nal]; lactam 1-C) | 12 | 255 | 16 (≈ 17.9 µg/mL) | 8 (≈ 8.95 µg/mL) | 16 (≈ 17.9 µg/mL) | 32 (≈ 35.8 µg/mL) | 32 (≈ 35.8 µg/mL) | 32 (≈ 35.8 µg/mL) | 64 (≈ 71.6 µg/mL)
12 | CC(C)C[C@@H]1NC(=O)CNC(=O)[C@H](Cc2ccccc2)NC(=O)[C@H](CCCCN)NC(=O)[C@H](CC(C)C)NC(=O)[C@H](Cc2ccccc2)NC(=O)[C@H](CCCCN)NC1=O (cyclo(FGLKFLK)) | < 8 | > 150 | > 128 | 128 (≈ 107 µg/mL) | > 128 | 128 (≈ 107 µg/mL) | > 128 | 128 (≈ 107 µg/mL) | > 128
13 | CC(C)C[C@@H]1NC(=O)CNC(=O)[C@H](Cc2c[nH]c3ccccc23)NC(=O)[C@H](CCCCN)NC(=O)[C@H](CC(C)C)NC(=O)[C@H](Cc2c[nH]c3ccccc23)NC(=O)[C@H](CCCCN)NC1=O (cyclo(GLKWLKW)) | < 8 | > 150 | > 128 | 128 (≈ 117 µg/mL) | > 128 | 128 (≈ 117 µg/mL) | > 128 | 128 (≈ 117 µg/mL) | > 128
14 | CC(C)C[C@@H]1NC(=O)CNC(=O)[C@H](Cc2c[nH]c3ccccc23)NC(=O)[C@H](CCCNC(=N)N)NC(=O)[C@H](CC(C)C)NC(=O)[C@H](Cc2c[nH]c3ccccc23)NC(=O)[C@H](CCCNC(=N)N)NC1=O (cyclo(GLRWLRW)) | < 8 | > 150 | > 128 | 64 (≈ 62 µg/mL) | 128 (≈ 124 µg/mL) | > 128 | > 128 | > 128 | > 128
15 | CC(C)C[C@@H]1NC(=O)CNC(=O)[C@H](Cc2ccc3ccccc3c2)NC(=O)[C@H](CCCCN)NC(=O)[C@H](CC(C)C)NC(=O)[C@H](Cc2ccc3ccccc3c2)NC(=O)[C@H](CCCCN)NC1=O (cyclo([2Nal]GLK[2Nal]LK)) | 13 | > 150 | 64 (≈ 59.8 µg/mL) | 16 (≈ 14.9 µg/mL) | 32 (≈ 29.9 µg/mL) | > 128 | > 128 | 128 (≈ 120 µg/mL) | 128 (≈ 120 µg/mL)
16 | CC(C)C[C@@H]1NC(=O)CNC(=O)[C@H](Cc2ccc3ccccc3c2)NC(=O)[C@H](CCCNC(=N)N)NC(=O)[C@H](CC(C)C)NC(=O)[C@H](Cc2ccc3ccccc3c2)NC(=O)[C@H](CCCCN)NC1=O (cyclo([2Nal]GLK[2Nal]LR)) | 14 | > 150 | 32 (≈ 30.8 µg/mL) | 16 (≈ 15.4 µg/mL) | 32 (≈ 30.8 µg/mL) | > 128 | > 128 | 128 (≈ 123 µg/mL) | 128 (≈ 123 µg/mL)
